Like-named read-outs stand apart in the source and are kept apart here.
System: 134 cancer cell lines
Assay: Cell viability assay (ATPlite, 72 hours), IC50 on cancer cell line panel

Question: What does the source list for `C=CC(=O)N1CCC([C@@H]2CCNc3c(C(N)=O)c(-c4ccc(Oc5ccccc5)cc4)nn32)CC1` [zanubrutinib]?
Answer: IC50 (Homo sapiens, LNCaP-Clone-FGC, read-out: IC50 in cell proliferation assay): 13.7 µM; IC50 (Homo sapiens, LS174T, read-out: IC50 in cell proliferation assay): 11.5 µM; IC50 (Homo sapiens, LS-411N, read-out: IC50 in cell proliferation assay): 12.4 µM; IC50 (Homo sapiens, LoVo, read-out: IC50 in cell proliferation assay): 24.9 µM; IC50 (Homo sapiens, MCF7, read-out: IC50 in cell proliferation assay): > 31.6 µM; IC50 (Homo sapiens, MDA-MB-231, read-out: IC50 in cell proliferation assay): > 31.6 µM; IC50 (Homo sapiens, MDA-MB-453, read-out: IC50 in cell proliferation assay): 4.19 µM; IC50 (Homo sapiens, MDA-MB-468, read-out: IC50 in cell proliferation assay): 3.9 µM; IC50 (Homo sapiens, MG-63, read-out: IC50 in cell proliferation assay): 29.3 µM; IC50 (Homo sapiens, MIA PaCa-2, read-out: IC50 in cell proliferation assay): > 31.6 µM; IC50 (Homo sapiens, MKN-45, read-out: IC50 in cell proliferation assay): > 31.6 µM; IC50 (Homo sapiens, MOLM-13, read-out: IC50 in cell proliferation assay): 2.06 µM; IC50 (Homo sapiens, MOLT-4, read-out: IC50 in cell proliferation assay): 16.5 µM; IC50 (Homo sapiens, MV4-11, read-out: IC50 in cell proliferation assay): 3.72 µM; IC50 (Homo sapiens, MeWo, read-out: IC50 in cell proliferation assay): > 31.6 µM; IC50 (Homo sapiens, NCCIT, read-out: IC50 in cell proliferation assay): 11.4 µM; IC50 (Homo sapiens, NCI-H82, read-out: IC50 in cell proliferation assay): > 31.6 µM; IC50 (Homo sapiens, NCI-H460, read-out: IC50 in cell proliferation assay): > 31.6 µM; IC50 (Homo sapiens, NCI-H661, read-out: IC50 in cell proliferation assay): 0.612 µM; IC50 (Homo sapiens, NCI-H716, read-out: IC50 in cell proliferation assay): 11.7 µM; IC50 (Homo sapiens, NCI-H1650, read-out: IC50 in cell proliferation assay): 13.9 µM; IC50 (Homo sapiens, NCI-H1975, read-out: IC50 in cell proliferation assay): 4.6 µM; IC50 (Homo sapiens, NCI-H2228, read-out: IC50 in cell proliferation assay): > 31.6 µM; IC50 (Homo sapiens, OVCAR-3, read-out: IC50 in cell proliferation assay): 1.53 µM; IC50 (Homo sapiens, PFSK-1, read-out: IC50 in cell proliferation assay): 18 µM; IC50 (Homo sapiens, RL95-2, read-out: IC50 in cell proliferation assay): 1.17 µM; IC50 (Homo sapiens, RPMI-7951, read-out: IC50 in cell proliferation assay): > 31.6 µM; IC50 (Homo sapiens, RS4-11, read-out: IC50 in cell proliferation assay): 26.5 µM; IC50 (Homo sapiens, SHP77, read-out: IC50 in cell proliferation assay): > 31.6 µM; IC50 (Homo sapiens, SK-BR-3, read-out: IC50 in cell proliferation assay): 0.141 µM; IC50 (Homo sapiens, SK-N-AS, read-out: IC50 in cell proliferation assay): 15.5 µM; IC50 (Homo sapiens, SK-N-FI, read-out: IC50 in cell proliferation assay): > 31.6 µM; IC50 (Homo sapiens, SK-N-MC, read-out: IC50 in cell proliferation assay): 23.1 µM; IC50 (Homo sapiens, SK-N-SH, read-out: IC50 in cell proliferation assay): > 31.6 µM; IC50 (Homo sapiens, SNU-5, read-out: IC50 in cell proliferation assay): 8.94 µM; IC50 (Homo sapiens, SNU-16, read-out: IC50 in cell proliferation assay): 8.54 µM; IC50 (Homo sapiens, SNU-C2B, read-out: IC50 in cell proliferation assay): 0.866 µM; IC50 (Homo sapiens, SU-DHL-1, read-out: IC50 in cell proliferation assay): 16.8 µM; IC50 (Homo sapiens, SU-DHL-6, read-out: IC50 in cell proliferation assay): 0.00375 µM; IC50 (Homo sapiens, SUP-T1, read-out: IC50 in cell proliferation assay): 17.5 µM; IC50 (Homo sapiens, SW48, read-out: IC50 in cell proliferation assay): 0.043 µM; IC50 (Homo sapiens, SW480, read-out: IC50 in cell proliferation assay): 9.56 µM; IC50 (Homo sapiens, SW626, read-out: IC50 in cell proliferation assay): 2.71 µM; IC50 (Homo sapiens, SW780, read-out: IC50 in cell proliferation assay): 5.82 µM; IC50 (Homo sapiens, SW837, read-out: IC50 in cell proliferation assay): 6 µM; IC50 (Homo sapiens, SW872, read-out: IC50 in cell proliferation assay): > 31.6 µM; IC50 (Homo sapiens, SW900, read-out: IC50 in cell proliferation assay): 5.84 µM; IC50 (Homo sapiens, SW948, read-out: IC50 in cell proliferation assay): > 31.6 µM; IC50 (Homo sapiens, SW982, read-out: IC50 in cell proliferation assay): > 31.6 µM; IC50 (Homo sapiens, SW-620, read-out: IC50 in cell proliferation assay): 4.75 µM; IC50 (Homo sapiens, T98G, read-out: IC50 in cell proliferation assay): > 31.6 µM; IC50 (Homo sapiens, TCC-SUP, read-out: IC50 in cell proliferation assay): > 31.6 µM; IC50 (Homo sapiens, THP-1, read-out: IC50 in cell proliferation assay): > 31.6 µM; IC50 (Homo sapiens, U2OS, read-out: IC50 in cell proliferation assay): 10.7 µM; IC50 (Homo sapiens, U-87 MG, read-out: IC50 in cell proliferation assay): > 31.6 µM; IC50 (Homo sapiens, U-118-MG, read-out: IC50 in cell proliferation assay): > 31.6 µM; IC50 (Homo sapiens, UMUC3, read-out: IC50 in cell proliferation assay): 24.1 µM; IC50 (Hs766T, read-out: IC50 in cell proliferation assay): > 31.6 µM; IC50 (L-82, read-out: IC50 in cell proliferation assay): 17.6 µM; IC50 (Rh30, read-out: IC50 in cell proliferation assay): 17.4 µM

From paper PMC9516332 (Frontiers in Oncology, 2022)
